# The source made the active and inactive calls. The rule behind the calls is not given here.
# Columns and labels:
# [1] = Induction of apoptosis in mouse BaF3 cells stably expressing KIF5B-RET G810C mutant assessed as necrotic cells at 20 nM incubated for 48 hrs by Annexin V-FITC/PI staining based flow cytometry (reference value: 0.94 %); assay type: functional
# [2] = Induction of apoptosis in mouse BaF3 cells stably expressing KIF5B-RET G810C mutant assessed as late apoptotic cells at 20 nM incubated for 48 hrs by Annexin V-FITC/PI staining based flow cytometry (reference value: 5.99 %); assay type: functional
# BaF3 [3] = experiment: Antiproliferative activity against mouse BaF3 cells stably expressing KIF5B-RET V804M mutant incubated for 72 hrs by CCK8 assay; assay type: functional, cell-based; conditions: BaF3, 72 h
# [4] = Induction of apoptosis in mouse BaF3 cells stably expressing KIF5B-RET G810C mutant assessed as necrotic cells at 10 nM incubated for 48 hrs by Annexin V-FITC/PI staining based flow cytometry (reference value: 0.94 %); assay type: functional
# BaF3 [5] = experiment: PROTAC activity at CRBN/KIF5B-RET (unknown origin) expressed in mouse BaF3 cells assessed as induction of RET degradation at 10 nM incubated for 24 hrs by immunoblot analysis relative to control; assay type: cell-based
# [6] = Induction of apoptosis in mouse BaF3 cells stably expressing KIF5B-RET G810C mutant assessed as late apoptotic cells at 40 nM incubated for 48 hrs by Annexin V-FITC/PI staining based flow cytometry (reference value: 5.99 %); assay type: functional
# BaF3 [7] = experiment: PROTAC activity at CRBN/KIF5B-RET (unknown origin) expressed in mouse BaF3 cells assessed as induction of RET degradation at 10 nM incubated for 24 hrs in presence of MG132 by immunoblot analysis; assay type: cell-based
# [8] = Induction of apoptosis in mouse BaF3 cells stably expressing KIF5B-RET G810C mutant assessed as apoptotic cells at 40 nM incubated for 48 hrs by Annexin V-FITC/PI staining based flow cytometry (reference value: 6.7 %); assay type: functional
# BaF3 [9] = experiment: PROTAC activity at CRBN/KIF5B-RET (unknown origin) expressed in mouse BaF3 cells assessed as induction of RET degradation at 1 to 100 nM incubated for 24 hrs by immunoblot analysis relative to control; assay type: cell-based; conditions: dose 1-100 nM
# [10] = Induction of apoptosis in mouse BaF3 cells stably expressing KIF5B-RET G810C mutant assessed as viable cells at 10 nM incubated for 48 hrs by Annexin V-FITC/PI staining based flow cytometry (reference value: 92.21 %); assay type: functional; conditions: read-out: Activity
# [11] = PROTAC activity at CRBN/KIF5B-RET (unknown origin) expressed in mouse BaF3 cells assessed as induction of RET degradation incubated for 24 hrs by immunoblot analysis; assay type: cell-based; conditions: BaF3, 24 h
# BaF3 [12] = experiment: Cytotoxicity against mouse BaF3 cells; assay type: functional, cell-based
# BaF3 [13] = experiment: PROTAC activity at CRBN/KIF5B-RET G810C mutant (unknown origin) expressed in mouse BaF3 cells assessed as induction of RET G810C mutant degradation at 1 to 100 nM incubated for 24 hrs by immunoblot analysis relative to control; assay type: cell-based; conditions: dose 1-100 nM
# BaF3 [14] = experiment: PROTAC activity at CRBN/KIF5B-RET G810C mutant (unknown origin) expressed in mouse BaF3 cells assessed as decrease in Shc activation incubated for 24 hrs by immunoblot analysis; assay type: cell-based; conditions: dose 1-50 nM
# [15] = molecular target: T1, Proto-oncogene tyrosine-protein kinase receptor Ret (Homo sapiens, UniProt P07949); experiment: Inhibition of RET (unknown origin) preincubated for 10 mins followed by substrate/ATP addition measured after 30 mins by HTRF assay
# [16] = Clearance in Sprague-Dawley rat at 1 mg/kg, iv measured for 24 hrs by LC-MS/MS analysis; assay type: ADME, organism-based; conditions: in vivo
# [17] = PROTAC activity at CRBN/KIF5B-RET G810C mutant (unknown origin) expressed in mouse BaF3 cells assessed as induction of RET G810C mutant degradation incubated for 24 hrs by immunoblot analysis; assay type: cell-based; conditions: BaF3, 24 h
# [18] = Volume of distribution at steady state in Sprague-Dawley rat at 1 mg/kg, iv measured for 24 hrs by LC-MS/MS analysis; assay type: ADME, organism-based; conditions: in vivo, read-out: Vdss
# [19] = AUC (0 to infinity) in Sprague-Dawley rat at 1 mg/kg, iv measured for 24 hrs by LC-MS/MS analysis; assay type: ADME, organism-based; conditions: in vivo
# [20] = system: Kinesin-1 heavy chain/ Tyrosine-protein kinase receptor RET (Homo sapiens), P07949+P33176 [G810C]; experiment: In vivo PROTAC activity at CRBN/KIF5B-RET G810C mutant (unknown origin) expressed in mouse BaF3 cells implanted in BALB/c nu/nu mouse assessed as induction of RET G810C mutant degradation at 10 mg/kg, po bid treated for 10 days by Western blot analysis; assay type: functional, organism-based; conditions: time 10.0 day
# [21] = molecular target: T1, Proto-oncogene tyrosine-protein kinase receptor Ret; experiment: Inhibition of RET (unknown origin) at 10 nM by kinase profiling analysis relative to control
# [22] = Toxicity in BALB/c nu/nu mouse implanted with mouse BaF3 cells stably expressing KIF5B-RET G810C mutant assessed as body weight loss at 10 mg/kg, po qd treated for 10 days; assay type: organism-based; conditions: in vivo, 240 h, time 10 day
# [23] = Cytotoxicity against human HEK293 cells; assay type: toxicity, cell-based
# BaF3 [24] = experiment: Antiproliferative activity against mouse BaF3 cells stably expressing CCDC6-RET G810R mutant incubated for 72 hrs by CCK8 assay; assay type: functional, cell-based; conditions: BaF3, 72 h
# [25] = Induction of apoptosis in mouse BaF3 cells stably expressing KIF5B-RET G810C mutant assessed as apoptotic cells at 10 nM incubated for 48 hrs by Annexin V-FITC/PI staining based flow cytometry (reference value: 6.7 %); assay type: functional
# BaF3 [26] = experiment: Antiproliferative activity against mouse BaF3 cells stably expressing KIF5B-RET G810S mutant incubated for 72 hrs by CCK8 assay; assay type: functional, cell-based; conditions: BaF3, 72 h
# BaF3 [27] = experiment: Antiproliferative activity against mouse BaF3 cells stably expressing KIF5B-RET G810R mutant incubated for 72 hrs by CCK8 assay; assay type: functional, cell-based; conditions: BaF3, 72 h
# [28] = Cmax in Sprague-Dawley rat at 1 mg/kg, iv measured for 24 hrs by LC-MS/MS analysis; assay type: ADME, organism-based; conditions: in vivo
# [29] = Induction of apoptosis in mouse BaF3 cells stably expressing KIF5B-RET G810C mutant assessed as early apoptotic cells at 20 nM incubated for 48 hrs by Annexin V-FITC/PI staining based flow cytometry (reference value: 0.86 %); assay type: functional
# [30] = Induction of apoptosis in mouse BaF3 cells stably expressing KIF5B-RET G810C mutant assessed as early apoptotic cells at 10 nM incubated for 48 hrs by Annexin V-FITC/PI staining based flow cytometry (reference value: 0.86 %); assay type: functional
# [31] = AUC (0 to infinity) in Sprague-Dawley rat at 10 mg/kg, po measured for 24 hrs by LC-MS/MS analysis; assay type: ADME, organism-based; conditions: in vivo
# BaF3 [32] = experiment: Antitumor activity against mouse BaF3 cells stably expressing KIF5B-RET G810C mutant implanted in BALB/c nu/nu mouse at 10 mg/kg, po bid treated for 10 days relative to control; assay type: functional; conditions: BaF3, 240 h, time 10 day, read-out: TGI
# T1 sequence (P07949 whole entry): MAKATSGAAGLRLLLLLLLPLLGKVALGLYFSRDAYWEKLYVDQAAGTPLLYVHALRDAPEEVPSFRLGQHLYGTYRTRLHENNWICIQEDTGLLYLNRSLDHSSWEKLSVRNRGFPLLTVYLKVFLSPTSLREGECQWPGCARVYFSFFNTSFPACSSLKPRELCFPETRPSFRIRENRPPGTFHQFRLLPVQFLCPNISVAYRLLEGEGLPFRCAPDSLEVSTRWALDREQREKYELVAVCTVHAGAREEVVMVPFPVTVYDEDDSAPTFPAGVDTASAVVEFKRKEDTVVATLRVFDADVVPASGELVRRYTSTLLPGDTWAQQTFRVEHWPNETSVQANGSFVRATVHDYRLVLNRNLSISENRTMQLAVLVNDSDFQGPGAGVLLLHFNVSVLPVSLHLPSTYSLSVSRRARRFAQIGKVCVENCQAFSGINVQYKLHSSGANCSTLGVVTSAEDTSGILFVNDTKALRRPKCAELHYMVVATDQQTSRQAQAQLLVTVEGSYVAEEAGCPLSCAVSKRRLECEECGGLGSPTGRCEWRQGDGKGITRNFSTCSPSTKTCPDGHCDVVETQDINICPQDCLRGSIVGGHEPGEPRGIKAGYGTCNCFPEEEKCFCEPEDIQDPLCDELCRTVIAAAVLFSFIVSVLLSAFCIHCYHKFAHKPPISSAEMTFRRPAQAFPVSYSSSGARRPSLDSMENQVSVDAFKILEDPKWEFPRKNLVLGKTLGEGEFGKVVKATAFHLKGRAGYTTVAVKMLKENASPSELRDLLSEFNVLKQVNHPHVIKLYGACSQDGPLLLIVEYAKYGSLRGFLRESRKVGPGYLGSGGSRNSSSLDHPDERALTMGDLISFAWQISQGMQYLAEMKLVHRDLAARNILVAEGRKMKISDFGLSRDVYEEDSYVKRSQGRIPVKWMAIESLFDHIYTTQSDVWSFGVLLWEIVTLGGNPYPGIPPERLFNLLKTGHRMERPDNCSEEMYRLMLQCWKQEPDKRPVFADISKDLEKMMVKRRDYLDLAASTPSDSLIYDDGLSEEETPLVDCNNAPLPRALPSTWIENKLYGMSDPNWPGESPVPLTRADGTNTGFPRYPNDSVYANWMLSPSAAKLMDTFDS
smiles,measurement,setting,value
COc1ccc(CN2C3CC2CN(c2ccc(-c4cc(N5CCC(N6CCN(CCCC#Cc7cccc8c7CN(C7CCC(=O)NC7=O)C8=O)CC6)CC5)cn5ncc(C#N)c45)cn2)C3)cn1 (configuration not stated),Activity,[1],1.01%
same,Activity,[2],17.41%
same,IC50,BaF3 [3],5.2 nM
same,Activity,[4],1.45%
same,Activity,BaF3 [5],65%
same,Activity,[6],15.31%
same,Activity,BaF3 [7],inactive
same,Activity,[8],71.3%
same,Emax,BaF3 [9],92%
same,viability at 0.01 µM,[10],64.3%
same,DC50,[11],5.6 nM
same,IC50,BaF3 [12],> 5000 nM
same,Emax,BaF3 [13],91%
same,Activity,BaF3 [14],Dose-dependent-effect
same,IC50,[15],0.371 nM
same,clearance,[16],52.8 mL/min/kg
same,DC50,[17],11.7 nM
same,Vd,[18],31.9 L/kg
same,AUC(0-inf),[19],295 ng·h/mL
same,Activity,[20],Active
same,inhibition,[21],> 50%
same,Activity,[22],Non-toxic
same,IC50,[23],> 5000 nM
same,IC50,BaF3 [24],122 nM
same,Activity,[25],34.1%
same,IC50,BaF3 [26],22.6 nM
same,IC50,BaF3 [27],165 nM
same,Cmax,[28],121 ng/mL
same,Activity,[29],38.21%
same,Activity,[30],18.33%
same,AUC(0-inf),[31],1190 ng·h/mL
same,inhibition in vivo at 10 mg/kg,BaF3 [32],85.1%
